Measurements published in patent publication US20250092353A1, “COMMENSAL FUNGUS AND USES THEREOF” (YEDA RESEARCH AND DEVELOPMENT CO. LTD., priority 2022, published 2025).

Legend:
[1] = tested on: CD4+ T cells in PBMCs; experiment: Antigen-reactive T cell enrichment (ARTE); assay type: cell-based, human; conditions: peripheral blood of healthy individuals, 40 μg/ml fungal lysates
Method: PBMCs were freshly isolated from EDTA blood samples on the day of blood donation by density gradient centrifugation (Biocoll; Biochrom, Berlin, Germany). Antigen-reactive T cell enrichment (ARTE) was performed as follows. Briefly, 2×10e^7 PBMCs were plated in RPMI-1640 medium (GIBCO), supplemented with 5% (v/v) human AB-serum (Sigma Aldrich, Schnelldorf, Germany) at a cell density of 1×10e^7 PBMCs/2 cm^2 in cell culture plates and stimulated with 40 μg/ml fungal lysates for 7 hr in presence of 1 μg/ml CD40 and 1 μg/ml CD28 pure antibody (both Miltenyi Biotec, Bergisch Gladbach, Germany). 1 μg/ml Brefeldin A (Sigma Aldrich) was added for the last 2 hr. Cells were labeled with CD154-Biotin followed by anti-Biotin MicroBeads (CD154 MicroBead Kit; Miltenyi Biotec) and magnetically enriched by two sequential MS columns (Miltenyi Biotec). Surface staining was performed on the first column, followed by fixation, permeabilization (Inside stain Kit, Miltenyi Biotec) and intracellular staining on the second column. […]
Frequencies of antigen-specific T cells were determined based on the total cell count of CD154+ T cells after enrichment, normalized to the total number of CD4+ T cells applied on the column. […]

[2] = tested on: C. albicans SC5314 (ENO1-GFP); experiment: In vivo competition with C. albicans in germ-free animals; parameters: species or system mice; conditions: oral mixture of the two fungi
Text: FIGS. 3A-3M include fluorescent micrographs, graphs, and a scheme, showing K. weizmannii competition with C. albicans in colonized animals. (3A) A representative picture of a far-red fluorescent reporter Kazachstania strain (K. weizmannii ENO1-Mirf). (3B-C) Recoverable fecal K. weizmannii in colonized wild-type animals (without antibiotics) one and six months after single oral K. weizmannii ENO1-Mirf inoculation. (3D) Flow cytometric analysis of C. albicans SC5314 (ENO1-GFP), K. weizmannii (ENO1-Mirf), and mixed cultures used for oral inoculation (3E). […] Quantification (n=3-5 mice per group, 4 independent experiments) (see (3D). (3H) Schematic non-limiting outline of a co-housing experiment. (3I) Representative flow cytometric feces analysis of colonized mice 4 weeks after initial colonization (before cohousing) and 2 weeks after co-housing. (N=4 per group). (3J) Percentages of respective labelled fungi in feces of C. albicans, K. weizmannii colonized animals, before and after co-housing in Abx presence (except for day 48 and 58); antibiotics withdrawal on day 46 of cohousing, n=4 per group, representative of 2 independent experiments. (3K) Flow cytometric analysis of feces of germfree animals 1 week after oral inoculation of single fungi cultures or mixed C. albicans SC5314 (ENO1-GFP)/K. weizmannii (ENO1-Mirf) culture. […]

[3] = tested on: C. albicans; experiment: In vitro co-culture assay of C. albicans and K. weizmannii; assay type: cell-based, Candida albicans; conditions: in vitro coculture, flow cytometry
Method: FIGS. 2A-2F include micrographs, graphs, a plot, and a curve showing in vitro culture characteristics of K. weizmannii. (2A) Representative images of C. albicans and K. weizmannii in liquid media in presence of filament-inducing conditions, n=3 independent experiments. (2B) A graph showing largest differences in growth between K. weizmannii and C. albicans with different carbon sources, based on a z-score > or <2. Differences were calculated using the normalized area under the curve (AUC) of K. weizmannii and C. albicans. Normalization of the AUC are based on the growth of both species with glucose. Size of data points corresponds to the normalized AUC of K. weizmannii with the corresponding carbon source. All measurements were done using the Biolog Phenotype MicroArrays in biological triplicates. […] The data points are color-coded according to the different types of carbon sources. (2C) A graph showing the largest differences in growth between K. weizmannii and C. albicans with different nitrogen sources, based on a z-score greater than or less than 2. Differences were calculated using AUC of K. weizmannii and C. albicans and normalized based on the growth of both species with glutamine. […] GFP expressing C. albicans was detected by flowcytometry to discriminate between fungi, n=2 independent experiments.

Kazachstania weizmannii [K. weizmannii]
polarization of fungus-reactive T cells [1]: of the Th1 type
C. albicans colonization after co-inoculation [2]: prevented efficient C. albicans colonization
growth interference in co-culture with C. albicans [3]: grew together without interference
